Key:
Type in all cases: cell-based
[1] = tested on: Rat corneal epithelial cell; assay: Cell protective effect: cell survival during preservation (trypan blue excretion test); conditions: for Average survival rate after preservation for 24 hours / Average survival rate at 24 hours: normal temperature (22° C.); for Average survival rate after preservation for 7 days / Average survival rate at 72 hours: refrigerator 4° C.
Method: (§1) Using a normal serum-free cell culture solution without FBS or a Ringer's solution (Otsuka Pharmaceutical Co., Ltd., Lactec Injection, Japanese Pharmacopoeia, Sodium L-lactate Ringer's solution) as a conditioning solution for use, for example, in preservation and transportation of cells, sodium alginate (Na alginate) (Fuji Chemical Industry Co., Ltd. Snow Algin SSL, viscosity of 1% aqueous solution is 30 mPa·s at 20° C.) was added to the conditioning solution in the concentrations shown in Table 1 to prepare cell preservation solutions. To each cell preservation solution, the above-described cells were added at a concentration of 10^6 cells/ml to satisfy the conditions shown in Table 1, and the resultant solution was left to stand in a room at normal temperature (22° C.) for 24 hours, and then whether cells were alive or dead was determined, and rates of viable cells (average survival rate (%)) were calculated and compared. Cell viability was determined by the trypan blue excretion test that is the ordinary method of confirming cell viability. The excretion test was performed according to the method described in “Denizot F., et al., Rapid colorimetric assay for cell growth and survival. Modifications to the tetrazolium dye procedure giving improved sensitivity and reliability. J. Immunol. Methods, 89, 271-277 (1986)”. The results are of N=4.
(§2) The average survival rate (%) was determined in the same manner as in Experimental Example (1-1-1) except that the preservation conditions were changed to leaving still for 72 hours in a refrigerator at a set temperature of 4° C. The results are of N=4.
The average survival rate (%) of cells was determined in the same manner as in Experimental Example (1-1-1) except that dextran sulfate (dextran sulfate special grade reagent available from NACALAI TESQUE, INC.) was used instead of sodium alginate and the conditions were as shown in Table 3. The results are of N=4.
The average survival rate (%) of cells was determined in the same manner as in Experimental Example (1-2-1) except that the preservation conditions were changed to leaving still for 72 hours in a refrigerator at a set temperature of 4° C. and to conditions shown in Table 4. The results are of N=3 in the case of using a serum-free cell culture solution, and are of N=4 in the case of using a Ringer's solution.
The average survival rate (%) of cells was determined in the same manner as in Experimental Example (1-1-1) except that heparin sodium (Heparin Na Mochida, unfractionated heparin, available from Mochida Pharmaceutical Co., Ltd.) was used instead of alginic acid and the conditions were as shown in Table 5. The results are of N=4.
The average survival rate (%) of cells was determined in the same manner as in Experimental Example (1-3-1) except that the preservation conditions were changed to leaving still for 72 hours in a refrigerator at a set temperature of 4° C. and to conditions shown in Table 6. The results are of N=4.
The average survival rate (%) of cells was determined in the same manner as in Experimental Example (1-3-2) except that urinastatin (Miraclid injection solution, containing 2.5 million units, available from Mochida Pharmaceutical Co., Ltd.) was used as a proteolytic enzyme inhibitor instead of heparin sodium and the conditions were as shown in Table 7. The results are of N=4. “Unit (U)” in the unit of concentration (units/mL) of inhibitor a in Table 7 can be measured, for example, by the quantitative method of urinastatin in the Japanese Pharmacopoeia 15th revision. Specifically, absorbance at 405 nm of a sample solution is measured with a UV 240 spectrophotometer, and concentration of urinastatin can be calculated from a calibration curve prepared in advance. […]

[2] = tested on: Chinese hamster fibroblast; assay: as above; conditions: for Average survival rate at 24 hours / Average survival rate at 72 hours: Ringer's solution; for Average survival rate at 24 hours: normal temperature (22° C.); for Average survival rate at 72 hours: refrigerator 4° C.
Method: as §1, §2

[3] = tested on: Rat corneal epithelial cell; assay: Cell dormancy effect: cell cycle analysis by flow cytometry; conditions: Na alginate 2.5 mg/mL (Wako first grade, 120 mPa·s); serum-free cell culture solution; cultured 48 hours at 37° C.
Method: Sodium alginate (sodium alginate first grade reagent, available from FUJIFILM Wako Pure Chemical Corporation, viscosity of 1% aqueous solution is 120 mPa·s at 20° C.), DS (the same as in Experimental Example 1), or sodium heparin (the same as in Experimental Example 1) was used as an active ingredient in the cell treatment agent, and whether cell dormancy occurs or not by action of the active ingredient was examined by comparing the activities of cell division and proliferation which are the most general cell activities in the following manner.
The cell cycle was analyzed by flow cytometry according to the method described in known literature (Piotr Pozarowski and Zbigniew Darzynkiewicz, “Analysis of Cell Cycle by Flow Cytometry,” Methods in Molecular Biology, vol. 281: Checkpoint Controls and Cancer, Volume 2), and frequency of cell division and proliferation was compared between different active ingredients of the cell treatment agent. A specific method is as follows. Using a normal serum-free cell culture solution as a conditioning solution (comparison reference (a)), (b) a cell preservation solution in which sodium alginate (Na alginate) is added to the conditioning solution in a concentration of 2.5 mg/ml, (c) a cell preservation solution in which DS is added to the conditioning solution in a concentration of 0.1 mg/ml, and (d) a cell preservation solution in which heparin sodium (heparin Na) is added to the conditioning solution in a concentration of 50 units/ml, were prepared. To these cell preservation solutions, rat corneal epithelial cells were added at a cell concentration of 10^5 cells/ml and cultured for 48 hours under normal cell culture conditions (37° C., CO2 concentration of 5%, humidity of 100%). The number of cells in each culture was determined by cell cycle analysis using flow cytometry to determine the number of cells in each cell cycle, and the percentage of cells in the S phase, G2 phase, and M phase, which are considered as the periods of the cell division and proliferation process, was compared with the percentage of cells in the G0 phase and G1 phase, which are considered as other periods. The results are of N=4.

[4] = tested on: rat corneal epithelial cells; assay: Cell detaching and suspending effect (Experimental Example 4); conditions: dextran aqueous solution (MW 35000-50000), concentrations shown in Table 13; observed over time
Method: A culture solution in which FBS was added to a normal serum-free cell culture solution in a concentration of 10% (10% FBS cell culture solution) was prepared in a culture dish. To this, rat corneal epithelial cells were added at 10^6 cells/ml and cultured for 24 hours under normal cell culture conditions (37° C., CO2 concentration of 5%, humidity of 100%) to make the cultured cells fully adhere to the culture dish wall which is a scaffold.
The culture solution in the culture dish on which cultured cells obtained as described above had adhered was replaced with each of dextran sulfate aqueous solutions and a dextran aqueous solution, which are respectively obtained by dissolving dextran sulfate (Dextran sodium sulfate MW 36000-50000, available from FUJIFILM Wako Pure Chemical Corporation) and dextran (Dextran MW 35000-50000, available from FUJIFILM Wako Pure Chemical Corporation) in purified water and have concentrations shown in Table 13, and the resultant culture solutions were continuously cultured under normal cell culture conditions (37° C., CO2 concentration of 5%, humidity of 100%). For each adherent cell, detachment and suspension of adherent cells from the dish wall was observed over time. For determination of detachment and suspension, the culture dish was gently shaken manually to observe whether the cells were detached from the dish wall and suspended, and the case where 90% or more of the cells were detached and suspended was determined as detachment and suspension of adherent cells. The results are of N=4. In Table 13, “∘” means that the cells were detached and suspended, and “x” means that the cells were not detached and suspended.

[5] = tested on: Mouse malignant melanoma highly metastatic strain cell; assay: Cell protective effect: cell survival during preservation under refrigeration (trypan blue excretion test); conditions: inhibitor b 0.25 mg/mL; 5% glucose solution; refrigerator 4° C.
Method: Using a 5% glucose solution as a conditioning solution, nafamostat mesilate (Fusan for Injection, available from Nichi-Iko Corporation), which is a proteolytic enzyme inhibitor, was added to the conditioning solution in the concentrations shown in Table 8 (in Fusan for Injection (available from Nichi-Iko Corporation), use of a 5% glucose solution as a dilution solution is specified) to prepare cell preservation solutions. To each cell preservation solution, cells of mouse malignant melanoma high metastatic strain were added at a concentration of 10^6 cells/ml and left in a refrigerator set at 4° C. for 48 hours, and then the average survival rate (%) of cells was determined in the same manner as in Experimental Example of (1-4-1-1). The results are of N=4.

[6] = Sodium alginate 0.5 mg/ml, Ringer's solution
[7] = Sodium alginate 2.5 mg/ml, Ringer's solution
[8] = Na alginate 0.63 mg/mL, Ringer's solution
[9] = Na alginate 0.63 mg/mL, serum-free cell culture solution
[10] = Na alginate 2.5 mg/mL, Ringer's solution
[11] = Na alginate 2.5 mg/mL, serum-free cell culture solution
[12] = Na alginate 5 mg/mL, serum-free cell culture solution
[13] = Sodium alginate 50 mg/ml, Ringer's solution

“sodium alginate [Sodium alginate 30 mPa · s (1% aqueous solution, 20° C.)]” was tested, and the “Average survival rate after preservation for 24 hours” value (shortened to “Average survival rate … for 24 hours”) ([1]; Sodium alginate 0.2 mg/ml, Ringer's solution) was 50%, the “Average survival rate after preservation for 7 days” value (from here on “Average survival rate … for 7 days”) [1, 6] was 51% and the “Average survival rate … for 24 hours” value ([1]; Sodium alginate 1 mg/ml, Ringer's solution) was 54%. The “Average survival rate … for 7 days” value [1, 7] was 56%.

With “sodium alginate [Sodium alginate 120 mPa · s (1% aqueous solution, 20° C.)]” the “Average survival rate … for 24 hours” value ([1]; Sodium alginate 0.1 mg/ml, Ringer's solution) was 62%, the “Average survival rate … for 7 days” value [1, 6] was 53% and the “Average survival rate … for 24 hours” value [1, 7] was 59%. The “Average survival rate … for 7 days” value [1, 7] was 52%.

sodium alginate [Na alginate] was tested, and the “Average survival rate at 24 hours” value ([2]; Na alginate 0.63 mg/mL) was 56%, the “Average survival rate at 72 hours” value ([2]; Na alginate 0.63 mg/mL) was 73% and the “Average survival rate at 24 hours” value ([2]; Na alginate 1.25 mg/mL) was 57%. The “Average survival rate at 24 hours” value ([2]; Na alginate 2.5 mg/mL) was 60%, the “Average survival rate at 72 hours” value ([2]; Na alginate 2.5 mg/mL) was 77% and the “Average survival rate at 72 hours” value ([2]; Na alginate 5 mg/mL) was 70%. For the same molecule, the “Average survival rate at 24 hours” value [1, 8] was 52%, the “Average survival rate at 72 hours” value [1, 8] was 68% and the “Average survival rate at 24 hours” value [1, 9] was 60%. The “Average survival rate at 72 hours” value [1, 9] was 77%, the “Average survival rate at 24 hours” value ([1]; Na alginate 1.25 mg/mL, Ringer's solution) was 51% and the “Average survival rate at 24 hours” value [1, 10] was 53%. The “Average survival rate at 72 hours” value [1, 10] was 72%, the “Average survival rate at 24 hours” value [1, 11] was 70% and the “Average survival rate at 72 hours” value [1, 11] was 80%. For the same molecule, the “Average survival rate at 72 hours” value ([1]; Na alginate 5 mg/mL, Ringer's solution) was 64%, the “Average survival rate at 24 hours” value [1, 12] was 74% and the “Average survival rate at 72 hours” value [1, 12] was 70%. The “Percentages of cells of each cell cycle: G0 phase + G1 phase” value [3] was 88.1% and the “Percentages of cells of each cell cycle: S phase + G2 phase + M phase” value [3] was 10.1%.

With dextran [reference compound] the “Detachment and suspension of adherent cells after replacement” value [4] was “not detached and suspended in any of the cases”.

With `N=C(N)c1ccc2cc(OC(=O)c3ccc(N=C(N)N)cc3)ccc2c1` [inhibitor b, nafamostat mesilate] the “Average survival rate at 48 hours” value [5] was 43%.

“low molecular weight heparin sodium [reference compound]” was tested, and the “Effect of improving cell viability (cell protective effect)” value ([2]; Chinese hamster fibroblasts, same preservation experiments, values not given) was “the cell protective effect was observed” and the “Effect of improving cell viability (cell protective effect)” value ([1]; rat corneal epithelial cells, same experiment as for heparin sodium, values not given) was “the cell protective effect was observed”.

“sodium alginate [Sodium alginate 30 mPa · s (10% aqueous solution, 20° C.)]” was tested, and the “Average survival rate … for 7 days” value [1, 7] was 54%, the “Average survival rate … for 7 days” value ([1]; Sodium alginate 10 mg/ml, Ringer's solution) was 69% and the “Average survival rate … for 24 hours” value ([1]; Sodium alginate 20 mg/ml, Ringer's solution) was 46%. For the same molecule, the “Average survival rate … for 24 hours” value [1, 13] was 50% and the “Average survival rate … for 7 days” value [1, 13] was 72%.

B1: urinastatin (protein, UniProt P02760 206-352, looked up)
Inter-alpha-trypsin inhibitor …: AVLPQEEEGSGGGQLVTEVTKKEDSCQLGYSAGPCMGMTSRYFYNGTSMACETFQYGGCMGNGNNFVTEKECLQTCRTVAACNLPIVRGPCRAFIQLWAFDAVKGKCVLFPYGGCQGNGNKFYSEKECREYCGVPGDGDEELLRFSN
modifications: Inter-alpha-trypsin inhibitor light chain
For B1, the “Average survival rate at 72 hours” value ([1]; inhibitor a 5 units/mL, Ringer's solution) was 70%.
